# Measurements taken from paper PMC4589779 (Scientific Reports, 2015).
# Like-named read-outs stand apart in the source and are kept apart here.
# Experiments:
# [1] = test system: HepG2 cells; assay: Cell proliferation assay (WST-1) in HepG2 cells; settings: for no toxic effect on cell viability up to (concentration): 6 hours incubation, alone or in combination with CDCA (50 μM); for effect on cell viability: 6 hours, 25 μM NSAID and CDCA (50 μM); for concentrations that are considerably toxic: summing up of the WST-1 toxicity data (HepG2 and HEK293T)
# Experimental: (§1) WST-1 assay (Roche Diagnostics International AG, Rotkreuz, Switzerland) was performed according to manufacturer’s protocol. In brief, HepG2 cells were seeded in DMEM high glucose, supplemented with sodium pyruvate (1 mM), penicillin (100 U/mL), streptomycin (100 μg/mL) and 10% FCS in 96-well plates (3 · 10^4 cells/well). HEK293T cells were seeded in DMEM high glucose, supplemented with sodium pyruvate (1 mM), penicillin (100 U/mL), streptomycin (100 μg/mL) and 10% FCS in 96-well plates (2,5 · 10^4 cells/well). After 24 h, medium was changed to DMEM high glucose, supplemented with penicillin (100 U/mL), streptomycin (100 μg/mL) and 1% charcoal stripped FCS and cells were incubated with varying concentrations of test compounds, Revlotron (100 μM) as positive control and DMEM/0,1% DMSO as negative control. […] […] After 45 min incubation, absorption (450 nm/reference: 620 nm) was determined with a Tecan Infinite M200 luminometer (Tecan Deutschland GmbH). Each experiment was repeated at least four times in triplicates.
# [2] = test system: HEK293T cells; assay: Cell proliferation assay (WST-1) in HEK293T cells; format: cell-based; settings: for anti-proliferative effect in combination with CDCA: 24 h, NSAIDs 5, 25, 50 μM combined with CDCA (50 μM); for toxicity compared with HepG2 cells: 48 h
# Experimental: as §1
# [3] = test system: CYP7A1 mRNA; set-up: method as in PMID 25631039; settings: HepG2 cells, with 50 μM CDCA; cited from earlier work
# [4] = biological target: T1, FXR-LBD protein (residues 244–472) (Homo sapiens, UniProt Q96RI1)
# T1 sequence (Q96RI1 244-472 isoform Q96RI1-2): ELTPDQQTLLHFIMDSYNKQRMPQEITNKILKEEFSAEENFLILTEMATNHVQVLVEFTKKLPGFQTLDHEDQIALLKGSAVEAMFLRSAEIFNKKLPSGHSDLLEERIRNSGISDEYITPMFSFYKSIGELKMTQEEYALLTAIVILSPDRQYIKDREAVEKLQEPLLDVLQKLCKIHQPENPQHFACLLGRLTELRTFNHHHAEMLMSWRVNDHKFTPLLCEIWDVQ
# Description: The thermal shift method is widely used to assess ligand binding. A thermal shift assay usually measures the melting temperature of a protein with or without a ligand by monitoring a fluorescent dye. In an aqueous solution of folded protein the dye signal is low due to quenching of the dye fluorescence in water, but with increasing temperature the protein unfolds and exposes its hydrophobic core regions. The fluorescent dye is then bound to the hydrophobic surfaces and fluorescence increases.
# Thermal Shift assay was performed in clear 96-well plates (Invitrogen) using SYPRO Orange (Invitrogen Darmstadt, Germany) as dye. […] Temperature-dependent fluorescence increase reporting protein denaturation was measured in duplicates in an ICycler (Bio-Rad) from 20 to 90 °C in steps of 0.2 °C per minute at […] and 570 nm emission wavelength. Each experiment was independently repeated four times. The first derivative of the melting curves was calculated using the Graph Pad Prism 5 software.
# [5] = test system: bile salt export protein (BSEP) mRNA
# Experimental: (§2) Quantification of the expression of FXR target genes in non-transfected cells offers the least artificial way to characterize the activity of a FXR ligand in vitro. […] As investigated genes we selected the direct FXR target genes bile salt export protein (BSEP) and small hetero-dimer partner (SHP) which allows a specific conclusion whether a FXR-dependent effect is present. […] We then quantified the mRNA of FXR target genes BSEP and SHP by qRT-PCR.
# (§3) HepG2 cells were seeded in DMEM high glucose, supplemented with 10% FCS, SP (1 mM), penicillin (100 U/mL) and streptomycin (100 μg/mL) at 37 °C and 5% CO2 in 6-well plates (2 · 10^6 per well). 24 h after seeding, medium was changed to MEM, supplemented with 1% charcoal-stripped FCS, penicillin (100 U/mL), streptomycin (100 μg/mL) and L-glutamine (2 mM). After additional 24 h, medium was changed again to MEM, now additionally containing 0.1% DMSO and the respective test compounds or 0.1% DMSO alone as untreated control. Cells were incubated with the test compounds for 6 h, harvested, washed with cold phosphate buffered saline (PBS) and then directly used for RNA extraction.
# Total RNA was extracted from HepG2 cells by the Total RNA Mini Kit (R6834-02, Omega Bio-Tek, Inc., Norcross, GA, USA). RNA was reverse-transcribed into cDNA using the High-Capacity cDNA Reverse Transcription Kit (4368814, Thermo Fischer Scientific, Inc., Waltham, MA, USA) with 2 μg RNA according to the manufacturer’s protocol.
# FXR target gene expression was evaluated by quantitative PCR analysis with a StepOnePlusTM System (Life Technologies) using PowerSYBRGreen (Life Technologies; 12.5 μL per well) and the following primers[17] (300 nM each): SHP: 5′-[…] (forward) and 5′-[…] (reverse); BSEP: 5′-[…] (forward) and 5′-[…] (reverse). Results were normalized to GAPDH Ct values. Sequences of the GAPDH primers were as follows: 5′-[…] (forward) and 5′- […] (reverse). Each sample was set up in duplicates and repeated in at least four independent experiments. The expression was quantified by the comparative ΔΔCt method.
# [6] = biological target: T2, fusion receptor of the FXR ligand binding domain and a Gal4 DNA binding domain (Homo sapiens, UniProt Q96RI1)
# T2 sequence (Q96RI1 262-486 limits assumed): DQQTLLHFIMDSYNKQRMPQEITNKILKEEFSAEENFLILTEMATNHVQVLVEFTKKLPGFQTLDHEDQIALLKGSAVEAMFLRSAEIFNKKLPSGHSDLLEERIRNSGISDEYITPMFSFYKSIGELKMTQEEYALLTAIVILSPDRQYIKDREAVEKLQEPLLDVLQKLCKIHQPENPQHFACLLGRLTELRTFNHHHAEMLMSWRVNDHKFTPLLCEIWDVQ
# Experimental: Luminescence was measured with an Infinite M200 luminometer (Tecan Deutschland GmbH). […] Fold activation was obtained by dividing the mean RLU of a test compound at a respective concentration by the mean RLU of untreated control.
# [7] = biological target: T3, FXR (Homo sapiens, UniProt Q96RI1); assay: Full-length FXR reporter gene assay in HeLa cells (BSEP promotor, RXRα); format: cell-based
# T3 construct: is based on the complete FXR receptor (CMV promoter); expressed in transfected cells; host or cells: HeLa
# T3 sequence (Q96RI1 1-486): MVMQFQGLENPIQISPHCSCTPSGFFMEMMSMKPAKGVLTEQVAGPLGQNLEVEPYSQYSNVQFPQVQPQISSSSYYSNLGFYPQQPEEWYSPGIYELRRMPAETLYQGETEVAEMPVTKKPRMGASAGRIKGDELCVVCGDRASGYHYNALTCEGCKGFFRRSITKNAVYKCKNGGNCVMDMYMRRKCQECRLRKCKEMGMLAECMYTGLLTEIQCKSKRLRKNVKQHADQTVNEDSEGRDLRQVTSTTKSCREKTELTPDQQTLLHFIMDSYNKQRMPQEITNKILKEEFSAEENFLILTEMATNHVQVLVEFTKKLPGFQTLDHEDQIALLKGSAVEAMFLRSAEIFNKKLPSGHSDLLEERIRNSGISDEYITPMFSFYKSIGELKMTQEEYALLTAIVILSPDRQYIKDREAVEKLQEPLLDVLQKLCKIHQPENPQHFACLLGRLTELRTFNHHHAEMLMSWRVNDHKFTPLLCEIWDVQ
# T3 sequence (P19793 1-462 partner): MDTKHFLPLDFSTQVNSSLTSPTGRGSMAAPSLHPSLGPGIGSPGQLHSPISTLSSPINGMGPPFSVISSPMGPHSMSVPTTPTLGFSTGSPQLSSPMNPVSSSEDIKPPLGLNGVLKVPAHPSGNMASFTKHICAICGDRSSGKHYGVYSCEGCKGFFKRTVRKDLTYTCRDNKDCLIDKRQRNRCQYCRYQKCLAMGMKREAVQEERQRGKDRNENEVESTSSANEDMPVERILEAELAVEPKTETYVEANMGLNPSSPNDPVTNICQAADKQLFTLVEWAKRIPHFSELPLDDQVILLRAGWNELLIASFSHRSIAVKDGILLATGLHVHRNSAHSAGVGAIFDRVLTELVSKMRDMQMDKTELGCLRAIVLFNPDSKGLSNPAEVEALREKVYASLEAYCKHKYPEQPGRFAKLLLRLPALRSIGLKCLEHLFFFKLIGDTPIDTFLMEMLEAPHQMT
# Experimental: Luminescence was measured with a Tecan Infinite M200 luminometer (Tecan Deutschland GmbH, Crailsheim, Germany). […] Fold activation was obtained by dividing the mean RLU of the tested compound at a respective concentration by the mean RLU of untreated control.
# [8] = Cell proliferation assay (WST-1) in HepG2 cells; settings: human, HepG2 cells
# Experimental: as §1
# [9] = test system: small hetero-dimer partner (SHP) mRNA; assay: FXR target gene quantification by qRT-PCR in HepG2 cells: SHP; format: cell-based
# Experimental: as §2
# as §3, with “extraction. […]” for “extraction.”
# FXR target gene expression was evaluated by quantitative PCR analysis with a StepOnePlusTM System (Life Technologies) using PowerSYBRGreen (Life Technologies; 12.5 μL per well) and the following primers[17] […] The expression was quantified by the comparative ΔΔCt method.
# [10] = 10 or 30 μM in competition with GW4064 (3 μM), OCA (3 μM) and CDCA (20 μM)
smiles,measurement,setting,value
CC(C)Cc1ccc(C(C)C(=O)O)cc1 (centres unmarked) [ibuprofen],no toxic effect on cell viability up to (concentration),[1]; HepG2 cells,up to 100 μM
same,effect on cell viability,[1]; HepG2 cells,did not affect cell viability
same,no toxicity up to (concentration),"[1]; HepG2 cells, 48 h",up to 50 μM
same,anti-proliferative effect in combination with CDCA,[2],considerable anti-proliferative effects
same,induction of CYP7A1 expression (increase in mRNA levels),[3],1.7 fold
CC(C)c1onc(-c2c(Cl)cccc2Cl)c1COc1ccc(/C=C/c2cccc(C(=O)O)c2)c(Cl)c1 [GW4064],concentrations that robustly stabilize the FXR-LBD,"[4]; 5 μM FXR-LBD, ratio to protein ≥20:1",≥ 100 µM
COc1ccc2c(c1)c(CC(=O)O)c(C)n2C(=O)c1ccc(Cl)cc1 [indometacin],no toxic effect on cell viability up to (concentration),[1]; HepG2 cells,up to 50 μM
same,effect on cell viability,[1]; HepG2 cells,did not affect cell viability
same,concentrations with anti-proliferative activity / slight toxicity,"[1]; human, 48 h",≥ 10 µM
same,concentrations that are considerably toxic,[1],≥ 30 µM
same,anti-proliferative effect in combination with CDCA,[2],considerable anti-proliferative effects
same,toxicity compared with HepG2 cells,[2],even higher toxicity
same,antagonistic effect on BSEP expression,"[5]; HepG2 cells, 25 μM and 50 μM in competition with CDCA (50 μM), 6 h",did not observe any antagonistic effect
same,effect on BSEP expression,"[5]; HepG2 cells, 50 μM alone, 6 h incubation",did not affect the expression
same,induction of CYP7A1 expression (increase in mRNA levels),[3],9 fold
"O=C(O)Cc1ccccc1Nc1c(Cl)cccc1Cl [diclofenac, diclofenac sodium]",activity of the control gene (renilla luciferase),[6],toxicity driven decrease
same,agonistic activity,[6]; 10 or 30 μM alone,None
same,competitive antagonistic activity,[6]; [10],None
same,agonistic activity,[7]; 10 or 30 μM alone,None
same,competitive antagonistic activity,[7]; [10],None
same,"viability at 6 h, 30 μM",[8],85 ± 2%
same,"viability at 6 h, 50 μM",[8],75 ± 2%
same,effect on cell viability,[1]; HepG2 cells,did not affect cell viability
same,concentrations with anti-proliferative activity / slight toxicity,"[1]; HepG2 cells, 48 h",≥ 10 µM
same,concentrations that are considerably toxic,[1],≥ 30 µM
same,anti-proliferative effect in combination with CDCA,[2],considerable anti-proliferative effects
same,toxicity compared with HepG2 cells,[2],even higher toxicity
same,effect on BSEP expression,[5],did not affect the expression
same,antagonistic effect on SHP expression,"[9]; 25 μM and 50 μM in competition with CDCA (50 μM), 6 h",did not observe any antagonistic effect
same,effect on SHP expression,"[9]; 50 μM alone, 6 h incubation",did not affect the expression
same,stabilization of the FXR-LBD,"[4]; 500 μM alone, ratio to protein 100:1",did not stabilize the FXR-LBD
same,antagonism of the stabilization of the FXR-LBD by GW4064,"[4]; 500 μM in competition with GW4064 (100 μM, ratio 20:1)",did not antagonize the stabilization
